Experimental data as given in US12331096B2, “Binding domain mapping and compounds, compositions, complexes, methods, and kits related thereto” (GEORGE MASON RESEARCH FOUNDATION, INC., priority 2019, dated 2025).
“And” between values parts separate entries of the source, which are not always exact repeats. Equal values may be shown once. “Also recorded” adds a separate entry of the source. Read-outs that look alike come from different tables or passages of the source. Where a SMILES comes first, the peptide text is derived from it. Bridges are numbered along the chain shown (N, C = ends).

Key:
[1] = Solubility of azo coupling products synthesized in PBS; assay type: physicochemical; settings: synthesized at room temperature in PBS, pH 7.4
Experimental: Dyes stocks were prepared to 1 mg/mL final concentrations. Synthesis was conducted as follows: Fast Dyes were mixed in 1× Dubelcco's PBS with an excess of coupling agent (3-fold molar concentration of coupling agent to fast dye) and vortexed. Reactions were conducted at room temperature and proceeded in the first 5 minutes of mixing with evident color change. Dye stocks were allowed to incubate at room temperature for one week prior to use. Dyes were used without further purification and were diluted prior to use in protein painting. Dye reagents were vortexed before each use, and stable for >6 months at room temperature. Reactions were monitored by reverse phase C18 TLC (mobile phase of 60% methanol, 40% water) to determine number of product bands. […] The two major product bands were separated via reverse-phase flash column chromatography conducted essentially as described previously using a 20 mm column, stationary phase of COSMOSIL C18-OPN reverse phase resin (Nacalai USA, Catalog number 37842-66), and mobile phase of 60% methanol or 30% acetonitrile. Fractions containing individual bands were identified via reverse-phase TLC and were pooled and dried. Pure samples by TLC were analyzed by NMR to confirm structure of each major product.
Two different fast dyes were used to synthesize new dye candidates. Fast Blue B was chosen to synthesize new diazo dyes, as it is structurally similar to the core of TB, while Fast Red TR was chosen to synthesize new halogenated small dyes. Four diverse coupling agents, 4-Amino-1-naphthalenesulfonic Acid or naphthionic acid, 4-Amino-5-hydroxy-2,7-naphthalenedisulfonic acid or H-acid, 7-Amino-1,3-naphthalenedisulfonic acid or Amino G Acid, and 2-napthol were chosen to evaluate the role of sulfonates on specific binding. […] The remaining 5 candidate dyes, Fast Blue B+Naphthionic Acid (FBBNA), Fast Blue B+H-acid (FBBHA), Fast Red TR+Naphthionic Acid (FRNA), Fast Red TR+H-acid (FRHA), and Fast Red TR+Amino G Acid (FRAGA), were all evaluated for their specific binding with respect to thyroglobulin (see Table 3).

Thyroglobulin = target: T1, Thyroglobulin (Bos taurus, UniProt P01267); assay: Specific binding of dye to thyroglobulin (gel filtration, UV-Vis); settings: for Specific binding to thyroglobulin at equilibrium: Vmax of Michaelis-Menten fit, no CuSO4
T1 construct: purchased Sigma Aldrich 9010-34-8
T1 sequence (P01267 20-2769): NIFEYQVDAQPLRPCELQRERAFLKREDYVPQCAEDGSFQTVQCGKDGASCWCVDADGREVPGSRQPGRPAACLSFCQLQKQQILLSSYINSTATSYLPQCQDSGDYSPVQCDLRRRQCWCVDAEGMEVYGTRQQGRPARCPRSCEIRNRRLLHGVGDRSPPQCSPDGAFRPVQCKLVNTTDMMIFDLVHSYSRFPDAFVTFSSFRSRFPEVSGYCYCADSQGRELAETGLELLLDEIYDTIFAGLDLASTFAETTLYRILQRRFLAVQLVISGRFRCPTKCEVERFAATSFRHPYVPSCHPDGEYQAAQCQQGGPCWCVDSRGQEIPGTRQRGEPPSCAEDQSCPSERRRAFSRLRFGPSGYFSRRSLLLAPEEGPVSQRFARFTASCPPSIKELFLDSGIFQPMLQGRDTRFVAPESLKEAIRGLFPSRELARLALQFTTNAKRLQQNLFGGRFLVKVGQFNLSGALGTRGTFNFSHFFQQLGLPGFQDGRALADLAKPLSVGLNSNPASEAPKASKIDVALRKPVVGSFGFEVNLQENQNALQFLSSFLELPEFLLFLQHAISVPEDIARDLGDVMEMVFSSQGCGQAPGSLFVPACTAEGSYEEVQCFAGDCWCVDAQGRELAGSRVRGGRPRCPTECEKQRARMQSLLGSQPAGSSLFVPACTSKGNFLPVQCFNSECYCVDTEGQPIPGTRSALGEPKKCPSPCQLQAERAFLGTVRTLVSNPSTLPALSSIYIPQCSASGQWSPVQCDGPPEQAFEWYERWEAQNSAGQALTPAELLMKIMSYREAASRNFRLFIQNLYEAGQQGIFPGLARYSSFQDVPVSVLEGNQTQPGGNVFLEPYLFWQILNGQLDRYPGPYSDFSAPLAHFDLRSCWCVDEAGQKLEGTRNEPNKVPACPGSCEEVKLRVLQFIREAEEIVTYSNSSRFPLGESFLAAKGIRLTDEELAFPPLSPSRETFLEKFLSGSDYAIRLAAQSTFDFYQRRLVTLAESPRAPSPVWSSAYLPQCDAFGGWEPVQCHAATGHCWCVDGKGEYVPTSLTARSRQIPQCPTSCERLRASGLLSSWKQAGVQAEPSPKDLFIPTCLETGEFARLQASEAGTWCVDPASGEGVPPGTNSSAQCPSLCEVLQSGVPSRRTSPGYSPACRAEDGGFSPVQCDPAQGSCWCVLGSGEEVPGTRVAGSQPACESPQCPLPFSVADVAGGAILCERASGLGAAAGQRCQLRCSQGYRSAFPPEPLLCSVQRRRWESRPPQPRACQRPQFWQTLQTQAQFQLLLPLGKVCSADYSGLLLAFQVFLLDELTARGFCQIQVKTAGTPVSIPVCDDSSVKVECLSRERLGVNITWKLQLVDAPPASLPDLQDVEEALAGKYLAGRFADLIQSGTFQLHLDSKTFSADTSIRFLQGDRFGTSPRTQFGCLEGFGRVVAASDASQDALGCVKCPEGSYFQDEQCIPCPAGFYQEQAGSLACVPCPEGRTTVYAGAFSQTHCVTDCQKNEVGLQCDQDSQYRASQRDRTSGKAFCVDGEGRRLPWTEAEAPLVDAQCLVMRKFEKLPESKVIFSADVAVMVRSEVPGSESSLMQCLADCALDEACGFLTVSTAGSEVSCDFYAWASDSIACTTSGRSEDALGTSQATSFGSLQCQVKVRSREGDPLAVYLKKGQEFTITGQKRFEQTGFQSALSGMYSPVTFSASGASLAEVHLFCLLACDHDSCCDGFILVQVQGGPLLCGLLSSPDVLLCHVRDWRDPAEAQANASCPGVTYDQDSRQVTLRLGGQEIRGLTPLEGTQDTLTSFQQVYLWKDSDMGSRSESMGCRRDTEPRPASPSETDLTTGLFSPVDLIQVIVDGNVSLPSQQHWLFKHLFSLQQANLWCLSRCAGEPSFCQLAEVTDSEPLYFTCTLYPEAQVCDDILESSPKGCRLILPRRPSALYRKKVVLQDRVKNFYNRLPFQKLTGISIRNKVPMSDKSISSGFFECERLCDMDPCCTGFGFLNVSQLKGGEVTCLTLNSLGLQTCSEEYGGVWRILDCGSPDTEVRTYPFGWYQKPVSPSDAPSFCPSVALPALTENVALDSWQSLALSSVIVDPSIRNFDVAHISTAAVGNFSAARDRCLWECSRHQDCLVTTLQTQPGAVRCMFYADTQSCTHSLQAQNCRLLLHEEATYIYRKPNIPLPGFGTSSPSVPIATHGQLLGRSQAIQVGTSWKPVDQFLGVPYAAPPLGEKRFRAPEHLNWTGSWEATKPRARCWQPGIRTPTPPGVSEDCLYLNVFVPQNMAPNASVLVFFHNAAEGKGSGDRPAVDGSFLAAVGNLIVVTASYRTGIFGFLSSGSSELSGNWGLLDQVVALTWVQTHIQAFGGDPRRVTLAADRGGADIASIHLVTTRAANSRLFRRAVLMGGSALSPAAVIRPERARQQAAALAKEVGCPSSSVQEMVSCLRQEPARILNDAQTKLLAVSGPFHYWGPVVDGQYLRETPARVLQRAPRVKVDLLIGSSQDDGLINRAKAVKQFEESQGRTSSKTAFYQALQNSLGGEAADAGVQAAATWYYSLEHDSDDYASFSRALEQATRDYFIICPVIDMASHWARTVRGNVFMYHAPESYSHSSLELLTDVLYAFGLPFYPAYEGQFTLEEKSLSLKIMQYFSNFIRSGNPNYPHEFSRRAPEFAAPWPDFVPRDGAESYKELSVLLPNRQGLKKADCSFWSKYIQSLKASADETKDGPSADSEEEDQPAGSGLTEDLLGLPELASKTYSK
Experimental: (§1) To determine specific binding of each candidate dye, thyroglobulin was primarily used as a model protein, because its large surface area facilitated more molecules of dye binding per protein, and thus higher signal to noise ratios versus smaller proteins. Candidate dyes were examined on a UV-2501PC UV-Vis spectrometer to determine Amax values. Standard curves were prepared for quantification of molecules of dye; dyes were eliminated from consideration if sensitivity of detection was not greater than 10 μM in solution. Thyroglobulin (1-5 μM) was mixed with 100-fold molar excess of candidate dye dissolved in PBS and allowed to associate between 15 seconds to 2 hours at room temperature. After association, 50 μL of the dye-protein mixtures were passed through a mini Quick Spin Oligo Column (Sephadex G-25 resin, Roche) and centrifugated at 1000× g for 1 min to separate unbound dye from the protein-dye complex. The collected flow-through was examined with UV-Vis spectroscopy, and quantity of dye in the flow-through was calculated using the previously developed standard curve for the dye. Specific Binding was defined as [Paint Molecules Bound]/[Protein]. A plot of specific binding versus time was fit with the Michaelis-Menton equation in GraphPad Prism 6 as a model to determine association kinetics and maximum dye binding, where Vmax represents the maximum amount of dye molecules that bind to the protein at equilibrium. All curves are fit to data from two independent experiments. Specific binding of dye candidates to lysozyme was conducted similarly, with the change that lysozyme (2-10 μM) was mixed with 50-fold molar excess of dye candidate dissolved in PBS and allowed to associate for the indicated time points.

[2] = Peptide solubility to 1 mM stock; settings: solvent additive for 1 mM stock
Lysozyme = target: T2, Lysozyme (Gallus gallus, UniProt P00698); assay: Specific binding of dye to lysozyme
T2 construct: purchased Sigma Aldrich 12650-88-3
T2 sequence (P00698 19-147): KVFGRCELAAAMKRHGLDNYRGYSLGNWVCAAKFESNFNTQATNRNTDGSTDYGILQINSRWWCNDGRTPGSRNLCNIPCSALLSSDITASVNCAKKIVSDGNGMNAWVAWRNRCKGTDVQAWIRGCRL
Experimental: as §1

bovine serum albumin = bovine serum albumin (Bos taurus, UniProt P02769); assay: Circular dichroism spectroscopy of BSA with dye, urea denaturation
bovine serum albumin, sequence (P02769 25-607): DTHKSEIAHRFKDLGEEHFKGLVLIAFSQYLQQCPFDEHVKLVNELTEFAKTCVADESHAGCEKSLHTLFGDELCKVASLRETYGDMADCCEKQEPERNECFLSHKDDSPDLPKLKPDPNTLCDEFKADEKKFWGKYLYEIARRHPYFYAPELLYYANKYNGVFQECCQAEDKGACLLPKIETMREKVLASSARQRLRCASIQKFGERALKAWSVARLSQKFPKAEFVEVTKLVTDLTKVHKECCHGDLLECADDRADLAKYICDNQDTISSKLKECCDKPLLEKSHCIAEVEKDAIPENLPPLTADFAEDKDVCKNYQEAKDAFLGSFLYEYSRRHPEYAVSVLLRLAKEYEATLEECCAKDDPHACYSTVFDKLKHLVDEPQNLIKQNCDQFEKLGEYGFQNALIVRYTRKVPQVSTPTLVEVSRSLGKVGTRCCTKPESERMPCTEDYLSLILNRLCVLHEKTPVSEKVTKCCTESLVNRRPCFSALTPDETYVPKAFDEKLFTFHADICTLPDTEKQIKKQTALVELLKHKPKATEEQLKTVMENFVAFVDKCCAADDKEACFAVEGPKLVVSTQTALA
Experimental: Circular dichroism spectroscopy was conducted using bovine serum albumin on a Jasco J-1500 CD spectrometer from 190-350 nm using a 1 mm cuvette. BSA stock solutions were prepared to 2 mg/mL from lyophilized protein in sterile-filtered 10 mM phosphate buffer, pH 7.0 and centrifuged at 16,000×g to remove particulates. Concentration was determined via A280 using an extinction coefficient of 43,824 M^−1 cm^−1 for BSA. Stocks were stored at −80° C. and diluted to the appropriate concentration in sterile-filtered MilliQ water for each experiment. Final concentration of BSA in each sample was 2 μM (0.12 mg/mL). Samples were incubated for 10 minutes with dye at a molar ratio equal to the specific binding of the molecule to the protein (i.e. 18 μM of FBBNA for 1 μM of BSA). Controls were incubated with equivolume amounts of MilliQ water in place of dye. […] Helical content of BSA spectra was determined using the online server DICHROWEB (Whitmore, L., and Wallace, B. A., “Protein secondary structure analyses from circular dichroism spectroscopy: methods and reference databases.” Biopolymers. 89, 392-400, 2008; Whitmore, L., and Wallace, B. A., “DICHROWEB, an online server for protein secondary structure analyses from circular dichroism spectroscopic data.” Nucleic Acids Res. 32, W668-673, 2004) to confirm native structure.

Compound: COc1cc(-c2ccc(N=Nc3c(O)ccc4ccccc34)c(OC)c2)ccc1N=Nc1c(O)ccc2ccccc12 [FBB2N]
- Solubility of dye product [1]: FBB2N: Dark Blue Pigment Insoluble

Compound: Cc1cc(Cl)ccc1N=Nc1c(O)ccc2ccccc12 [FR2N]
- Solubility of dye product [1]: FR2N: Bright Orange Pigment Insoluble

Compound: Cc1cc(Cl)ccc1N=Nc1cc(S(=O)(=O)O)c2ccccc2c1N [FRNA]
- Solubility of dye product [1]: Soluble
- Binding to thyroglobulin (in words) (Thyroglobulin): None of the Fast Red TR-based dyes including FRNA, FRHA, and FRAGA showed any significant binding
- Specific binding to thyroglobulin (Thyroglobulin; candidate dyes, Tables 3 and 4): No binding

Compound: CC[C@H](C)[C@H](NC(=O)[C@H](CCSC)NC(=O)[C@H](CS)NC(=O)[C@H](CCCNC(=N)N)NC(=O)[C@@H](N)Cc1ccc(O)cc1)C(=O)N[C@@H](CO)C(=O)N[C@@H](Cc1ccc(O)cc1)C(=O)NCC(=O)NCC(=O)N[C@@H](C)C(=O)N[C@@H](CC(=O)O)C(=O)N[C@@H](Cc1ccc(O)cc1)C(=O)N[C@@H](CCCCN)C(=O)N[C@@H](CCCNC(=N)N)C(=O)N[C@H](C(=O)N[C@H](C(=O)N[C@H](C(=O)O)C(C)C)[C@@H](C)O)[C@@H](C)CC [Peptide 1]
- Solubility (to 1 mM) [2]: 60% CH3COOH, and 14% CH3CN

Compound: CC[C@H](C)[C@@H]1NC(=O)[C@H](CCSC)NC(=O)[C@H](C)NC(=O)[C@H](CCCNC(=N)N)NC(=O)[C@H](Cc2ccc(O)cc2)NC(=O)[C@@H](N)CSSC[C@@H](C(=O)O)NC(=O)[C@H]([C@@H](C)O)NC(=O)[C@H]([C@@H](C)CC)NC(=O)[C@H](CCCNC(=N)N)NC(=O)[C@H](CCCCN)NC(=O)[C@H](Cc2ccc(O)cc2)NC(=O)[C@H](CC(=O)O)NC(=O)[C@H](C)NC(=O)CNC(=O)CNC(=O)[C@H](Cc2ccc(O)cc2)NC(=O)[C@H](CO)NC1=O [Peptide 2] (H-CYRAMISYGGADYKRITC-OH; disulfide 1-18)
- Solubility (to 1 mM) [2]: 40% CH3COOH

Compound: Cc1cc(-c2ccc(/N=N/c3c(S(=O)(=O)O)cc4cc(S(=O)(=O)O)cc(N)c4c3O)c(C)c2)ccc1/N=N/c1c(S(=O)(=O)O)cc2cc(S(=O)(=O)O)cc(N)c2c1O [TB]
- Binding to thyroglobulin (in words) (Thyroglobulin): least specific binding
- Specific binding to thyroglobulin at equilibrium (Thyroglobulin): 3 molecules
- Binding to lysozyme (in words) (Lysozyme): unable to bind
- Binding to lysozyme (in words) (Lysozyme; listed as Trypan Blue): not to lysozyme

Compound: sodium 4-(4-(benzyl-et-amino)-ph-azo)-2,5-di-cl-benzenesulphonate [AO50]
- Effect of dye on native secondary structure of BSA (CD) (bovine serum albumin; 10 min incubation with dye): does not change
- Denaturation of BSA by urea in the presence of dye (CD) (bovine serum albumin; urea 2M, 4M, 6M (FBBNA), 4M urea (AO50, combination)): attenuated; also recorded: partially stabilize
- Specific binding to thyroglobulin at equilibrium (Thyroglobulin): 15 molecules
- Binding to lysozyme (in words) (Lysozyme): able to bind
- Specific binding to lysozyme at equilibrium (Lysozyme; Vmax of Michaelis-Menten fit): 1 molecule
